{"source": "patent US9850382B1", "about": "“Unsymmetrical cyanine dyes and their application” (priority 2016, dated 2017)", "key": {"[1]": {"tested_on": "nucleic acids", "details": "cited from earlier work"}, "[2]": {"tested_on": "E. coli rRNA versus calf thymus DNA", "assay": "Selectivity test on RNA vs dsDNA (emission spectra in TE buffer)", "format": "binding", "details": "10 μg/mL calf thymus DNA or E. coli rRNA in 1×TE, 5 μL of 100 μM dye per mL, excitation 620 nm, FIG. 1", "experimental": "A stock solution of compound 9 was prepared at 100 μM concentration in DMSO. Calf thymus DNA, and E. coli rRNA were prepared at 10 μg/mL concentration in 1×TE buffer, individually. To 1 mL of DNA solution and 1 mL of RNA solution was added with 5 μL of compound 9, individually. The emission spectrum associated with each of the solutions was scaned at excitation wavelength 620 nm."}, "[3]": {"tested_on": "rRNA", "assay": "Microplate fluorescence intensity with RNA dilutions", "format": "binding", "details": "dye 400 nM, RNA up to 1000 ng/mL in 1×TE, Ex/Em=620/660 nm, FIG. 2", "experimental": "(§1) A series of RNA and DNA dilutions up to 1000 ng/mL in 1×TE buffer is added to the wells of a 96-well microplate. A series of mixture of RNA and DNA is prepared according to the following table, and is added to separate wells.\n(§2) Compound 9 is added to each well at a final concentration of 400 nM. The fluorescence intensity is measured on a fluorescence plate reader with Ex/Em=620/660 nm."}, "[4]": {"tested_on": "calf thymus DNA", "assay": "Microplate fluorescence intensity with DNA dilutions", "format": "binding", "details": "dye 400 nM, DNA up to 1000 ng/mL in 1×TE, Ex/Em=620/660 nm, FIG. 2", "experimental": "as §1, §2"}, "[5]": {"tested_on": "mixture of RNA and DNA", "assay": "Selectivity test on a mixture of RNA and DNA (total 1000 ng/mL)", "format": "binding", "details": "dye 400 nM, RNA+DNA total 1000 ng/mL in 1×TE, Ex/Em=620/660 nm, FIG. 2", "experimental": "as §1, §2"}, "[6]": {"tested_on": "mixture of RNA and DNA at 1:1 ratio", "assay": "Selectivity test on a 1:1 mixture of RNA and DNA", "format": "binding", "details": "dye 100 nM, RNA:DNA 1:1 up to 200 ng/mL each in 1×TE, Ex/Em=620/660 nm, FIG. 3", "experimental": "In another experiment, a series of RNA and DNA dilutions up to 200 ng/mL in 1×TE buffer is added to the wells of a 96-well microplate. A series of mixture of RNA and DNA at 1:1 ratio is prepared according to the following table, and is added to separate wells.\nCompound 9 is added to each well at a final concentration of 100 nM. The fluorescence intensity is measured on a fluorescence plate reader with Ex/Em=620/660 nm."}, "[7]": {"tested_on": "rRNA, tRNA and mRNA", "assay": "Selectivity test on different source of RNA", "format": "binding", "details": "dye 400 nM, RNA up to 1000 ng/mL in 1×TE, Ex/Em=620/660 nm, FIG. 4", "experimental": "A series of rRNA, tRNA and mRNA dilutions up to 1000 ng/mL in 1×TE buffer is added to the wells of a 96-well microplate. Compound 9 is added to each well at a final concentration of 400 nM. The fluorescence intensity is measured on a fluorescence plate reader with Ex/Em=620/660 nm."}, "[8]": {"tested_on": "rRNA and 1 kb DNA Ladder", "assay": "Detection of nucleic acids in electrophoretic gels (post-gel staining)", "format": "binding", "details": "1% agarose gel, ~1 μM dye in 1×TE, ~30 min staining, 633 nm laser, 675 nm filter", "experimental": "Agarose gels (1% agarose) are prepared according to a standard protocol. Serial two-fold dilutions of 1 kb DNA Ladder from Invitrogen and rRNA from Roche are prepared, and the resulting DNA and RNA samples are loaded onto an agarose gel. The DNA and RNA samples are electrophoretically separated in 1×TBE buffer using a standard protocol. A stock solution of compound 9 is diluted into ˜1 μM final concentration in 1×TE buffer. The agarose gels are incubated in the staining solutions for ˜30 min to stain the gels. The stained nucleic acid bands are recorded using Fuji FLA-3000 gel scanner, using 633 nm laser illumination, and a 675 nm filter."}, "[9]": {"tested_on": "rRNA", "assay": "Detection of nucleic acids on microarrays, rRNA spots", "format": "binding", "details": "~1 μM dye in 1×TE, 5 minutes, 633 nm laser excitation", "experimental": "(§3) A microarray consisting of a dilution series of DNA marker and rRNA is printed on a slide using a microarray spotter. The slide is equilibrated in 1×SSC buffer to remove any excess printing buffer, and then soaked with compound 9 solution at ˜1 μM final concentration in 1×TE buffer for 5 minutes, followed by a 5 minute wash in 1×TE buffer to remove any excess compound. The slide is then imaged using a array scaner using 633 nm laser excitation."}, "[10]": {"tested_on": "DNA marker", "assay": "Detection of nucleic acids on microarrays, DNA spots", "format": "binding", "details": "~1 μM dye in 1×TE, 5 minutes, 633 nm laser excitation", "experimental": "as §3"}}}
{"smiles": "CN1C(=Cc2cc[n+](C)c3ccccc23)Sc2ccccc21", "note": "[Thiazole Orange, reference compound]", "values": [{"measurement": "detection sensitivity on nucleic acids", "setting": "[1]", "result": "low detection sensitivity"}]}
{"smiles": "CCN(CC)Cc1ccc(C(=C\\c2sc3ccc(S(=O)(=O)NCCCS(=O)(=O)[O-])cc3[n+]2C)/C=C2\\C=CN(C)c3ccccc32)cc1", "note": "[Compound 9]", "values": [{"measurement": "selectivity for RNA versus DNA (fluorescence emission spectra)", "setting": "[2]", "result": "good selectivity"}, {"measurement": "fluorescence intensity response with RNA concentration", "setting": "[3]", "result": "nice linear response"}, {"measurement": "fluorescence signal with DNA alone", "setting": "[4]", "result": "little to no signal"}, {"measurement": "fluorescence intensity of mixture of RNA and DNA compared with RNA alone", "setting": "[5]", "result": "the same for the corresponding concentration of RNA"}, {"measurement": "selectivity on RNA in a mixture of RNA and DNA", "setting": "[6]", "result": "excellent selectivity"}, {"measurement": "fluorescent signal when associated with rRNA, tRNA and mRNA", "setting": "[7]", "result": "comparable fluorescent signal"}, {"measurement": "fluorescence signal of RNA bands versus corresponding DNA bands in gel", "setting": "[8]", "result": "much brighter"}, {"measurement": "staining of rRNA spots on microarray", "setting": "[9]", "result": "stained"}, {"measurement": "staining of DNA spots on microarray", "setting": "[10]", "result": "undetectable"}]}
{"smiles": "CCCN1C=C/C(=C\\c2sc3ccccc3[n+]2C)c2ccccc21", "note": "[SYBR Safe]", "values": [{"measurement": "detection sensitivity on nucleic acids", "setting": "[1]", "result": "low sensitive"}]}
